According to US20020137929A1, “1 - (3-heterocyclylphenyl) isothiourea, -isourea, -guanidine and -amidine herbicidal agents” (Intellectual Property Department, BASF Aktiengesellschaft, priority 1998, published 2002):

Key:
AMBEL (Ragweed, Common) [1] = assay: Postemergence herbicidal evaluation; format: in vivo, Ambrosia artemisifolia; details: postemergence
How it was run: (§1)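 Herbicidal effect was judged by eye on a 0–9 scale covering stand, vigor, deformity, size and chlorosis, compared with controls, four to five weeks after seedlings about two weeks old were sprayed (40 psi, ~0.0156–0.500 kg/ha).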

CASOB (Sicklepod) [2] = assay: Postemergence herbicidal evaluation; format: in vivo, Cassia obtusifolia; details: postemergence
How it was run: as §1

[3] = test system: CHEAL (Lambsquarters, Common); assay: Postemergence herbicidal evaluation; format: in vivo, Chenopodium album; details: postemergence
How it was run: as §1

[4] = test system: IPOHE (Morningglory, Ivyleaf); assay: Postemergence herbicidal evaluation; format: in vivo, Ipomoea hederacea; details: postemergence
How it was run: as §1

ECHCG (Barnyardgrass) = assay: Postemergence herbicidal evaluation; format: in vivo, Echinochloa crus-galli; details: postemergence
How it was run: as §1

[5] = test system: GLXMAW (Soybean, Williams); assay: Postemergence herbicidal evaluation; format: in vivo, Glycine max, (L.) Merr. cv Williams; details: postemergence
How it was run: as §1

[6] = test system: TRZAWR (Wheat, Winter, cv Riband); assay: Postemergence herbicidal evaluation; format: in vivo, Triticum aestivum; details: postemergence
How it was run: as §1

ABUTH (Velvetleaf) = assay: Preemergence herbicidal evaluation; format: in vivo, Abutilon theophrasti; details: preemergence, rated 4-5 weeks after treatment, 0-9 scale
How it was run: (§2)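 Seeds were planted in potting soil in cups, then sprayed preemergence with the test compound in aqueous acetone at about 0.0156 to 0.500 kg per hectare. Cups were kept under greenhouse conditions and visually rated 4–5 weeks after treatment on a 0–9 scale against an untreated control.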

AMBEL (Ragweed, Common) [7] = assay: Preemergence herbicidal evaluation; format: in vivo, Ambrosia artemisifolia; details: preemergence, rated 4-5 weeks after treatment, 0-9 scale
How it was run: as §2

CASOB (Sicklepod) [8] = assay: Preemergence herbicidal evaluation; format: in vivo, Cassia obtusifolia; details: preemergence, rated 4-5 weeks after treatment, 0-9 scale
How it was run: as §2

[9] = test system: CHEAL (Lambsquarters, Common); assay: Preemergence herbicidal evaluation; format: in vivo, Chenopodium album; details: preemergence, rated 4-5 weeks after treatment, 0-9 scale
How it was run: as §2

[10] = test system: IPOHE (Morningglory, Ivyleaf); assay: Preemergence herbicidal evaluation; format: in vivo, Ipomoea hederacea; details: preemergence, rated 4-5 weeks after treatment, 0-9 scale
How it was run: as §2

[11] = test system: GLXMAW (Soybean, Williams); assay: Preemergence herbicidal evaluation; format: in vivo, Glycine max, (L.) Merr. cv Williams; details: preemergence, rated 4-5 weeks after treatment, 0-9 scale
How it was run: as §2

ORYSAT (Rice, Tebonnet) = assay: Preemergence herbicidal evaluation; format: in vivo, Oryza sativa, (L.) Tebonnet; details: preemergence, rated 4-5 weeks after treatment, 0-9 scale
How it was run: as §2

MOOVA (Monochoria) = assay: Preemergence weed control under flooded paddy conditions; format: in vivo, Monochoria vaginalis; details: rated 3-4 weeks after treatment
How it was run: (§3)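 Silt loam, seeds in top 0.5 cm; flood held 1.5-3 cm; test cpd as acetone/water 50/50 into flood water, ~0.0313-0.500 kg/ha a.i.; greenhouse 3-4 wk; visual 0-9 score vs control.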

[12] = test system: SAGPY (Arrowhead (Pygmaea)); assay: as above; format: in vivo, Sagittaria pygmaea; details: rated 3-4 weeks after treatment
How it was run: as §3

C=CCN1C(=O)C(CC(=O)NC)SC1=Nc1cc(-n2c(=O)cc(C(F)(F)F)n(C)c2=O)c(F)cc1Cl (stereo not drawn) [Compound 84, 3-Allyl-2-{{2-chloro-5-[3,6-dihydro-3-methyl-2,6-dioxo-4-(trifluoromethyl)-1(2H)-pyrimidinyl]-4-fluorophenyl}imino}-N-methyl-4-oxo-5-thiazolidineacetamide]
AMBEL herbicidal rating (AMBEL (Ragweed, Common) [1]; rate 0.0156 kg/ha): 4.0
AMBEL herbicidal rating (AMBEL (Ragweed, Common) [1]; rate 0.0313 kg/ha): 9.0
AMBEL herbicidal rating (AMBEL (Ragweed, Common) [1]; rate 0.0625 kg/ha): 9.0
AMBEL herbicidal rating (AMBEL (Ragweed, Common) [1]; rate 0.1250 kg/ha): 9.0
CASOB herbicidal rating (CASOB (Sicklepod) [2]; rate 0.0156 kg/ha): 0.0
CASOB herbicidal rating (CASOB (Sicklepod) [2]; rate 0.0313 kg/ha): 0.0
CASOB herbicidal rating (CASOB (Sicklepod) [2]; rate 0.0625 kg/ha): 0.0
CASOB herbicidal rating (CASOB (Sicklepod) [2]; rate 0.1250 kg/ha): 3.0
CHEAL herbicidal rating ([3]; rate 0.0156 kg/ha): 6.0
CHEAL herbicidal rating ([3]; rate 0.0313 kg/ha): 7.0
CHEAL herbicidal rating ([3]; rate 0.0625 kg/ha): 9.0
CHEAL herbicidal rating ([3]; rate 0.1250 kg/ha): 9.0
IPOHE herbicidal rating ([4]; rate 0.0156 kg/ha): 9.0
IPOHE herbicidal rating ([4]; rate 0.0313 kg/ha): 9.0
IPOHE herbicidal rating ([4]; rate 0.0625 kg/ha): 9.0
IPOHE herbicidal rating ([4]; rate 0.1250 kg/ha): 9.0
ECHCG herbicidal rating (ECHCG (Barnyardgrass); rate 0.0156 kg/ha): 0.0
ECHCG herbicidal rating (ECHCG (Barnyardgrass); rate 0.0313 kg/ha): 0.0
ECHCG herbicidal rating (ECHCG (Barnyardgrass); rate 0.0625 kg/ha): 0.0
ECHCG herbicidal rating (ECHCG (Barnyardgrass); rate 0.1250 kg/ha): 0.0
GLXMAW herbicidal rating ([5]; rate 0.0156 kg/ha): 4.0
GLXMAW herbicidal rating ([5]; rate 0.0313 kg/ha): 4.5
GLXMAW herbicidal rating ([5]; rate 0.0625 kg/ha): 4.5
GLXMAW herbicidal rating ([5]; rate 0.1250 kg/ha): 8.5
TRZAWR herbicidal rating ([6]; rate 0.0156 kg/ha): 3.0
TRZAWR herbicidal rating ([6]; rate 0.0313 kg/ha): 3.5
TRZAWR herbicidal rating ([6]; rate 0.0625 kg/ha): 4.5
TRZAWR herbicidal rating ([6]; rate 0.1250 kg/ha): 5.0
ABUTH rating (ABUTH (Velvetleaf); 0.0156 kg/ha): 2.0
ABUTH rating (ABUTH (Velvetleaf); 0.0313 kg/ha): 2.0
ABUTH rating (ABUTH (Velvetleaf); 0.0625 kg/ha): 7.0
ABUTH rating (ABUTH (Velvetleaf); 0.1250 kg/ha): 9.0
ABUTH rating (ABUTH (Velvetleaf); 0.2500 kg/ha): 9.0
ABUTH rating (ABUTH (Velvetleaf); 0.5000 kg/ha): 9.0
AMBEL rating (AMBEL (Ragweed, Common) [7]; 0.0156 kg/ha): 0.0
AMBEL rating (AMBEL (Ragweed, Common) [7]; 0.0313 kg/ha): 3.0
AMBEL rating (AMBEL (Ragweed, Common) [7]; 0.0625 kg/ha): 4.0
AMBEL rating (AMBEL (Ragweed, Common) [7]; 0.1250 kg/ha): 9.0
AMBEL rating (AMBEL (Ragweed, Common) [7]; 0.2500 kg/ha): 9.0
AMBEL rating (AMBEL (Ragweed, Common) [7]; 0.5000 kg/ha): 9.0
CASOB rating (CASOB (Sicklepod) [8]; 0.0156 kg/ha): 0.0
CASOB rating (CASOB (Sicklepod) [8]; 0.0313 kg/ha): 0.0
CASOB rating (CASOB (Sicklepod) [8]; 0.0625 kg/ha): 0.0
CASOB rating (CASOB (Sicklepod) [8]; 0.1250 kg/ha): 0.0
CASOB rating (CASOB (Sicklepod) [8]; 0.2500 kg/ha): 0.0
CASOB rating (CASOB (Sicklepod) [8]; 0.5000 kg/ha): 9.0
CHEAL rating ([9]; 0.0156 kg/ha): 5.0
CHEAL rating ([9]; 0.0313 kg/ha): 9.0
CHEAL rating ([9]; 0.0625 kg/ha): 9.0
CHEAL rating ([9]; 0.1250 kg/ha): 9.0
CHEAL rating ([9]; 0.2500 kg/ha): 9.0
CHEAL rating ([9]; 0.5000 kg/ha): 9.0
IPOHE rating ([10]; 0.0156 kg/ha): 0.0
IPOHE rating ([10]; 0.0313 kg/ha): 0.0
IPOHE rating ([10]; 0.0625 kg/ha): 0.0
IPOHE rating ([10]; 0.1250 kg/ha): 1.0
IPOHE rating ([10]; 0.2500 kg/ha): 9.0
IPOHE rating ([10]; 0.5000 kg/ha): 9.0
GLXMAW rating ([11]; 0.0156 kg/ha): 0.0
GLXMAW rating ([11]; 0.0313 kg/ha): 0.0
GLXMAW rating ([11]; 0.0625 kg/ha): 0.0
GLXMAW rating ([11]; 0.1250 kg/ha): 3.0
GLXMAW rating ([11]; 0.2500 kg/ha): 5.0
GLXMAW rating ([11]; 0.5000 kg/ha): 7.0
ORYSAT rating (ORYSAT (Rice, Tebonnet); 0.0156 kg/ha): 0.0
ORYSAT rating (ORYSAT (Rice, Tebonnet); 0.0313 kg/ha): 0.0
ORYSAT rating (ORYSAT (Rice, Tebonnet); 0.0625 kg/ha): 0.0
ORYSAT rating (ORYSAT (Rice, Tebonnet); 0.1250 kg/ha): 0.0
ORYSAT rating (ORYSAT (Rice, Tebonnet); 0.2500 kg/ha): 3.0
ORYSAT rating (ORYSAT (Rice, Tebonnet); 0.5000 kg/ha): 9.0
MOOVA herbicidal effect rating (MOOVA (Monochoria); 0.0313 kg/ha): 9.0
MOOVA herbicidal effect rating (MOOVA (Monochoria); 0.0625 kg/ha): 9.0
MOOVA herbicidal effect rating (MOOVA (Monochoria); 0.1250 kg/ha): 9.0
MOOVA herbicidal effect rating (MOOVA (Monochoria); 0.2500 kg/ha): 9.0
SAGPY herbicidal effect rating ([12]; 0.0313 kg/ha): 2.0
SAGPY herbicidal effect rating ([12]; 0.0625 kg/ha): 6.0
SAGPY herbicidal effect rating ([12]; 0.1250 kg/ha): 7.0
SAGPY herbicidal effect rating ([12]; 0.2500 kg/ha): 9.0
